How the values were obtained:
barnyardgrass [1] = experiment: Test A postemergence; assay type: in vivo, Echinochloa crus-galli
How it was run: (§1)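 Visual 0–100 rating (100 = complete control) taken about 10 d post-treatment relative to untreated checks. Preemergence: directed soil spray on sown loam/sand pots. Postemergence: seedlings 2–10 cm, 1–2 leaf. Non-phytotoxic solvent formulation with surfactant.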

large (Lg) crabgrass = experiment: Test A postemergence; assay type: in vivo, Digitaria sanguinalis
How it was run: as §1

giant foxtail [2] = experiment: Test A postemergence; assay type: in vivo, Setaria faberii
How it was run: as §1

morningglory = experiment: Test A postemergence; assay type: in vivo, Ipomoea spp.
How it was run: as §1

velvetleaf [3] = experiment: Test A postemergence; assay type: in vivo, Abutilon theophrasti
How it was run: as §1

corn = experiment: Test A postemergence; assay type: in vivo, Zea mays
How it was run: as §1

Heteranthera limosa = experiment: Test B flooded paddy test; assay type: in vivo; conditions: Flood, 250 g ai/ha, 0 to 100 scale where 0 is no effect and 100 is complete control
How it was run: (§2)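 Visual ratings on a 0 to 100 scale, where 100 means complete control, compared treated plants with controls after 13 to 15 days in a greenhouse. Treatment went into paddy water 3 cm deep over the soil, applied to plants at the 2-leaf stage.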

barnyardgrass [4] = experiment: Test B flooded paddy test; assay type: in vivo, Echinochloa crus-galli; conditions: Flood, 250 g ai/ha, 0 to 100 scale where 0 is no effect and 100 is complete control
How it was run: as §2

wheat, winter = experiment: Test C preemergence; assay type: in vivo, Triticum aestivum
How it was run: (§3)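 Greenhouse herbicide screen. Pre: seeded loam/sand, sprayed at planting. Post: 1–4 leaf plants (2–18 cm) in peat-based mix. Formulation: solvent mixture + surfactant, non-phytotoxic. Readout: visual % control vs untreated, 13–15 d; dash = not tested.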

giant foxtail [5] = experiment: Test C preemergence; assay type: in vivo, Setaria faberii
How it was run: as §3

yellow nutsedge = experiment: Test C preemergence; assay type: in vivo, Cyperus esculentus
How it was run: as §3

pigweed = experiment: Test C preemergence; assay type: in vivo, Amaranthus retroflexus
How it was run: as §3

velvetleaf [6] = experiment: Test C preemergence; assay type: in vivo, Abutilon theophrasti
How it was run: as §3

[7] = 125 g ai/ha, 0 to 100 scale where 0 is no effect and 100 is complete control
[8] = 500 g ai/ha, 0 to 100 scale where 0 is no effect and 100 is complete control
[9] = 16 g ai/ha, preemergence, scale 0 to 100 (0 no effect, 100 complete control)
[10] = 62 g ai/ha, preemergence, scale 0 (no effect) to 100 (complete control)
[11] = 125 g ai/ha, preemergence, scale 0 (no effect) to 100 (complete control)
[12] = Preemergence, 31 g ai/ha, scale 0 to 100, 0 no effect, 100 complete control

FC(F)(F)c1cnn(-c2ccccc2Oc2ncc(Br)cn2)c1 [Compound 18, 5-bromo-2-[2-[4-(trifluoromethyl)-1H-pyrazol-1-yl]phenoxy]pyrimidine]
pest or weed control at 125 g/ha (barnyardgrass [1]; Echinochloa crus-galli, post-emergence, 240 h, 125 g ai/ha, 0 to 100 scale where 0 is no effect and 100 is complete control, read-out: Plant response rating, Barnyardgrass): 60%
pest or weed control at 500 g/ha (barnyardgrass [1]; Echinochloa crus-galli, post-emergence, 240 h, 500 g ai/ha, 0 to 100 scale, 0 no effect, 100 complete control, read-out: Plant response rating Barnyardgrass): 100%
pest or weed control at 125 g/ha (large (Lg) crabgrass; Digitaria sanguinalis, post-emergence, 240 h, 125 g ai/ha, 0 to 100 scale where 0 is no effect and 100 is complete control, read-out: Plant response rating, Crabgrass, Large): 70%
pest or weed control at 500 g/ha (large (Lg) crabgrass; Digitaria sanguinalis, post-emergence, 240 h, 500 g ai/ha, 0 to 100 scale, 0 no effect, 100 complete control, read-out: Plant response rating Crabgrass, Large): 100%
pest or weed control at 125 g/ha (giant foxtail [2]; Setaria faberi, post-emergence, 240 h, 125 g ai/ha, 0 to 100 scale where 0 is no effect and 100 is complete control, read-out: Plant response rating, Foxtail, Giant): 80%
pest or weed control at 500 g/ha (giant foxtail [2]; Setaria faberi, post-emergence, 240 h, 500 g ai/ha, 0 to 100 scale, 0 no effect, 100 complete control, read-out: Plant response rating Foxtail, Giant): 100%
pest or weed control at 125 g/ha (morningglory; Ipomoea, post-emergence, 240 h, 125 g ai/ha, 0 to 100 scale where 0 is no effect and 100 is complete control, read-out: Plant response rating, Morningglory): 60%
pest or weed control at 500 g/ha (morningglory; Ipomoea, post-emergence, 240 h, 500 g ai/ha, 0 to 100 scale, 0 no effect, 100 complete control, read-out: Plant response rating Morningglory): 100%
pest or weed control at 125 g/ha (velvetleaf [3]; Abutilon theophrasti, post-emergence, 240 h, 125 g ai/ha, 0 to 100 scale where 0 is no effect and 100 is complete control, read-out: Plant response rating, Velvetleaf): 100%
pest or weed control at 500 g/ha (velvetleaf [3]; Abutilon theophrasti, post-emergence, 240 h, 500 g ai/ha, 0 to 100 scale, 0 no effect, 100 complete control, read-out: Plant response rating Velvetleaf): 100%
Corn plant response rating (crop injury, 0 = no effect, 100 = complete kill) at 125 g/ha (corn; Zea mays, post-emergence, 240 h, 125 g ai/ha, 0 to 100 scale where 0 is no effect and 100 is complete control): 30%
plant injury at 500 g/ha (corn; Zea mays, post-emergence, 240 h, 500 g ai/ha, 0 to 100 scale, 0 no effect, 100 complete control, read-out: Plant response rating Corn): 90%
pest or weed control at 250 g/ha (Heteranthera limosa; Heteranthera limosa, read-out: Plant response rating, Ducksalad): 90%
pest or weed control at 250 g/ha (barnyardgrass [4]; Echinochloa crus-galli, read-out: Plant response rating, Barnyardgrass): 30%
plant injury at 62 g/ha (wheat, winter; Triticum aestivum, pre-emergence, 62 g ai/ha, preemergence, scale 0 (no effect) to 100 (complete control), read-out: Wheat plant response rating): 5%
plant injury at 125 g/ha (wheat, winter; Triticum aestivum, pre-emergence, 125 g ai/ha, preemergence, scale 0 (no effect) to 100 (complete control), read-out: Wheat plant response rating): 35%
plant injury at 250 g/ha (wheat, winter; Triticum aestivum, pre-emergence, 250 g ai/ha, preemergence, scale 0 (no effect) to 100 (complete control), read-out: Wheat plant response rating): 35%
plant injury at 31 g/ha (wheat, winter; Triticum aestivum, pre-emergence, Preemergence, 31 g ai/ha, scale 0 to 100, 0 no effect, 100 complete control, read-out: Plant response rating, Wheat): 0%
pest or weed control at 62 g/ha (giant foxtail [5]; Setaria faberi, pre-emergence, 62 g ai/ha, preemergence, scale 0 (no effect) to 100 (complete control), read-out: Foxtail, Giant plant response rating): 100%
pest or weed control at 125 g/ha (giant foxtail [5]; Setaria faberi, pre-emergence, 125 g ai/ha, preemergence, scale 0 (no effect) to 100 (complete control), read-out: Foxtail, Giant plant response rating): 100%
pest or weed control at 250 g/ha (giant foxtail [5]; Setaria faberi, pre-emergence, 250 g ai/ha, preemergence, scale 0 (no effect) to 100 (complete control), read-out: Foxtail, Giant plant response rating): 100%
pest or weed control at 31 g/ha (giant foxtail [5]; Setaria faberi, pre-emergence, Preemergence, 31 g ai/ha, scale 0 to 100, 0 no effect, 100 complete control, read-out: Plant response rating, Foxtail, Giant): 65%
pest or weed control at 62 g/ha (yellow nutsedge; Cyperus, pre-emergence, 62 g ai/ha, preemergence, scale 0 (no effect) to 100 (complete control), read-out: Nutsedge, Yellow plant response rating): 15%
pest or weed control at 125 g/ha (yellow nutsedge; Cyperus, pre-emergence, 125 g ai/ha, preemergence, scale 0 (no effect) to 100 (complete control), read-out: Nutsedge, Yellow plant response rating): 25%
pest or weed control at 250 g/ha (yellow nutsedge; Cyperus, pre-emergence, 250 g ai/ha, preemergence, scale 0 (no effect) to 100 (complete control), read-out: Nutsedge, Yellow plant response rating): 35%
pest or weed control at 31 g/ha (yellow nutsedge; Cyperus, pre-emergence, Preemergence, 31 g ai/ha, scale 0 to 100, 0 no effect, 100 complete control, read-out: Plant response rating, Nutsedge, Yellow): 10%
pest or weed control at 62 g/ha (pigweed; Amaranthus retroflexus, pre-emergence, 62 g ai/ha, preemergence, scale 0 (no effect) to 100 (complete control), read-out: Pigweed plant response rating): 100%
pest or weed control at 125 g/ha (pigweed; Amaranthus retroflexus, pre-emergence, 125 g ai/ha, preemergence, scale 0 (no effect) to 100 (complete control), read-out: Pigweed plant response rating): 100%
pest or weed control at 250 g/ha (pigweed; Amaranthus retroflexus, pre-emergence, 250 g ai/ha, preemergence, scale 0 (no effect) to 100 (complete control), read-out: Pigweed plant response rating): 100%
pest or weed control at 31 g/ha (pigweed; Amaranthus retroflexus, pre-emergence, Preemergence, 31 g ai/ha, scale 0 to 100, 0 no effect, 100 complete control, read-out: Plant response rating, Pigweed): 100%
pest or weed control at 62 g/ha (velvetleaf [6]; Abutilon theophrasti, pre-emergence, 62 g ai/ha, preemergence, scale 0 (no effect) to 100 (complete control), read-out: Velvetleaf plant response rating): 100%
pest or weed control at 125 g/ha (velvetleaf [6]; Abutilon theophrasti, pre-emergence, 125 g ai/ha, preemergence, scale 0 (no effect) to 100 (complete control), read-out: Velvetleaf plant response rating): 100%
pest or weed control at 250 g/ha (velvetleaf [6]; Abutilon theophrasti, pre-emergence, 250 g ai/ha, preemergence, scale 0 (no effect) to 100 (complete control), read-out: Velvetleaf plant response rating): 100%
pest or weed control at 31 g/ha (velvetleaf [6]; Abutilon theophrasti, pre-emergence, Preemergence, 31 g ai/ha, scale 0 to 100, 0 no effect, 100 complete control, read-out: Plant response rating, Velvetleaf): 60%

Fc1cnc(Oc2cccc(C(F)F)c2-n2cc(Br)cn2)nc1 [Compound 112]
Plant response rating, Barnyardgrass (barnyardgrass [1]; [7]): 40
Plant response rating, Barnyardgrass (barnyardgrass [1]; [8]): 90
Plant response rating, Crabgrass, Large (large (Lg) crabgrass; [7]): 60
Plant response rating, Crabgrass, Large (large (Lg) crabgrass; [8]): 100
Plant response rating, Foxtail, Giant (giant foxtail [2]; [7]): 30
Plant response rating, Foxtail, Giant (giant foxtail [2]; [8]): 90
Plant response rating, Morningglory (morningglory; [8]): 100
Plant response rating, Velvetleaf (velvetleaf [3]; [8]): 100
Plant response rating, Corn (corn; [7]): 30
Plant response rating, Corn (corn; [8]): 70
Plant response rating, Ducksalad (Heteranthera limosa): 90
Plant response rating, Barnyardgrass (barnyardgrass [4]): 0
Wheat plant response rating (wheat, winter; [9]): 0
Wheat plant response rating (wheat, winter; [10]): 0
Wheat plant response rating (wheat, winter; [11]): 10
Plant response rating, Wheat (wheat, winter; [12]): 0
Foxtail, Giant plant response rating (giant foxtail [5]; [9]): 15
Foxtail, Giant plant response rating (giant foxtail [5]; [10]): 100
Foxtail, Giant plant response rating (giant foxtail [5]; [11]): 100
Plant response rating, Foxtail, Giant (giant foxtail [5]; [12]): 85
Nutsedge, Yellow plant response rating (yellow nutsedge; [9]): 0
Nutsedge, Yellow plant response rating (yellow nutsedge; [10]): 15
Nutsedge, Yellow plant response rating (yellow nutsedge; [11]): 40
Plant response rating, Nutsedge, Yellow (yellow nutsedge; [12]): 5
Pigweed plant response rating (pigweed; [9]): 100
Pigweed plant response rating (pigweed; [10]): 100
Pigweed plant response rating (pigweed; [11]): 100
Plant response rating, Pigweed (pigweed; [12]): 100
Velvetleaf plant response rating (velvetleaf [6]; [9]): 65
Velvetleaf plant response rating (velvetleaf [6]; [10]): 100
Velvetleaf plant response rating (velvetleaf [6]; [11]): 100
Plant response rating, Velvetleaf (velvetleaf [6]; [12]): 70

Fc1cccc(Oc2ncc(Cl)cn2)c1-n1cc(I)cn1 [Compound 179]
Barnyardgrass plant response rating (barnyardgrass [1]; [7]): 80
Plant response rating, Barnyardgrass (barnyardgrass [1]; [8]): 100
Crabgrass, Large plant response rating (large (Lg) crabgrass; [7]): 90
Plant response rating, Crabgrass, Large (large (Lg) crabgrass; [8]): 100
Foxtail, Giant plant response rating (giant foxtail [2]; [7]): 80
Plant response rating, Foxtail, Giant (giant foxtail [2]; [8]): 90
Morningglory plant response rating (morningglory; [7]): 70
Plant response rating, Morningglory (morningglory; [8]): 100
Velvetleaf plant response rating (velvetleaf [3]; [7]): 100
Plant response rating, Velvetleaf (velvetleaf [3]; [8]): 100
Corn plant response rating (corn; [7]): 30
Plant response rating, Corn (corn; [8]): 60
Plant response rating, Ducksalad (Heteranthera limosa): 80
Plant response rating, Barnyardgrass (barnyardgrass [4]): 20
Wheat plant response rating (wheat, winter; [9]): 0
Wheat plant response rating (wheat, winter; [10]): 0
Wheat plant response rating (wheat, winter; [11]): 5
Foxtail, Giant plant response rating (giant foxtail [5]; [9]): 40
Foxtail, Giant plant response rating (giant foxtail [5]; [10]): 100
Foxtail, Giant plant response rating (giant foxtail [5]; [11]): 100
Plant response rating, Foxtail, Giant (giant foxtail [5]; [12]): 85
Nutsedge, Yellow plant response rating (yellow nutsedge; [9]): 0
Nutsedge, Yellow plant response rating (yellow nutsedge; [10]): 10
Nutsedge, Yellow plant response rating (yellow nutsedge; [11]): 15
Pigweed plant response rating (pigweed; [9]): 100
Pigweed plant response rating (pigweed; [10]): 100
Pigweed plant response rating (pigweed; [11]): 100
Velvetleaf plant response rating (velvetleaf [6]; [9]): 60
Velvetleaf plant response rating (velvetleaf [6]; [10]): 98
Velvetleaf plant response rating (velvetleaf [6]; [11]): 100
